From patent publication US11076594B2, “Pyrazolone compound or salt thereof, preparation method therefor, herbicide composition and use thereof” (QINGDAO KINGAGROOT CHEMICAL COMPOUNDS CO., LTD., priority 2015, dated 2021)

Assays:
Assay type in all cases: in vivo
Details in all cases: post-emergence spray at 4-5 leaf stage, 250 g/ha active ingredient with 450 kg/ha water, rated after 3 weeks in greenhouse
rice = assay: post-emergence stage experiment, crop (Table 1); design: key: Level 10: completely dead; Level 9: above 95% growth control rate; Level 8: above 90% growth control rate; Level 7: above 80% growth control rate; Level 6: above 70% growth control rate; Level 5: above 60% growth control rate; Level 4: above 50% growth control rate; Level 3: above 20% growth control rate; Level 2: 5%-20% growth control rate; Level 1: below 5% growth control rate
In short: (§1)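 Seeds were sown in pots, covered with 0.5-2 cm soil and grown in a greenhouse. At the 4-5 leaf stage, plants were sprayed with the test compound formulated in acetone, Tween 80 and water. Fresh weight control was rated after 3 weeks.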

bidens bipinnata = assay: weed control effect in post-emergence stage (Table 1); design: key: Level 10: completely dead; Level 9: above 95% growth control rate; Level 8: above 90% growth control rate; Level 7: above 80% growth control rate; Level 6: above 70% growth control rate; Level 5: above 60% growth control rate; Level 4: above 50% growth control rate; Level 3: above 20% growth control rate; Level 2: 5%-20% growth control rate; Level 1: below 5% growth control rate
In short: as §1

crab grass = assay: as above; design: key: Level 10: completely dead; Level 9: above 95% growth control rate; Level 8: above 90% growth control rate; Level 7: above 80% growth control rate; Level 6: above 70% growth control rate; Level 5: above 60% growth control rate; Level 4: above 50% growth control rate; Level 3: above 20% growth control rate; Level 2: 5%-20% growth control rate; Level 1: below 5% growth control rate
In short: as §1

foxtail = assay: as above; design: key: Level 10: completely dead; Level 9: above 95% growth control rate; Level 8: above 90% growth control rate; Level 7: above 80% growth control rate; Level 6: above 70% growth control rate; Level 5: above 60% growth control rate; Level 4: above 50% growth control rate; Level 3: above 20% growth control rate; Level 2: 5%-20% growth control rate; Level 1: below 5% growth control rate
In short: as §1

Indian mallow = assay: as above; design: key: Level 10: completely dead; Level 9: above 95% growth control rate; Level 8: above 90% growth control rate; Level 7: above 80% growth control rate; Level 6: above 70% growth control rate; Level 5: above 60% growth control rate; Level 4: above 50% growth control rate; Level 3: above 20% growth control rate; Level 2: 5%-20% growth control rate; Level 1: below 5% growth control rate
In short: as §1

echinochloa = assay: as above; design: key: Level 10: completely dead; Level 9: above 95% growth control rate; Level 8: above 90% growth control rate; Level 7: above 80% growth control rate; Level 6: above 70% growth control rate; Level 5: above 60% growth control rate; Level 4: above 50% growth control rate; Level 3: above 20% growth control rate; Level 2: 5%-20% growth control rate; Level 1: below 5% growth control rate
In short: as §1

rorippa indica = assay: as above; design: key: Level 10: completely dead; Level 9: above 95% growth control rate; Level 8: above 90% growth control rate; Level 7: above 80% growth control rate; Level 6: above 70% growth control rate; Level 5: above 60% growth control rate; Level 4: above 50% growth control rate; Level 3: above 20% growth control rate; Level 2: 5%-20% growth control rate; Level 1: below 5% growth control rate
In short: as §1

corn = assay: post-emergence stage experiment, crop (Table 1)
In short: as §1

wheat = assay: post-emergence stage experiment, crop (Table 1)
In short: as §1

| Compound | effect on crop, Rice (level) (rice) | weed control effect, Bidens bipinnata (level) (bidens bipinnata) | weed control effect, Crab grass (level) (crab grass) | weed control effect, Green foxtail (level) (foxtail) | weed control effect, Indian mallow (level) (Indian mallow) | weed control effect, Echinochloa (level) (echinochloa) | weed control effect, Rorippa indica (level) (rorippa indica) | effect on crop, Corn (level) (corn) | effect on crop, Wheat (level) (wheat) |
| --- | --- | --- | --- | --- | --- | --- | --- | --- | --- |
| CCc1nn(C)c(O)c1C(=O)c1ccc(C(F)(F)F)c(N2CCCC2=O)c1Cl [Compound 100] | 10 | 9 (Level 9: above 95% growth control rate) | 3 (Level 3: above 20% growth control rate) | 10 | 9 (Level 9: above 95% growth control rate) | 10 | 10 | 2 (Level 2: 5%-20% growth control rate) | 2 (Level 2: 5%-20% growth control rate) |
| CCc1nn(C)c(OC(=O)c2cn(C)nc2C)c1C(=O)c1ccc(C(F)(F)F)c(N2CCCC2=O)c1Cl [Compound 101] | 10 | 9 (Level 9: above 95% growth control rate) | 4 (Level 4: above 50% growth control rate) | 10 | 10 | 10 | 10 | 2 (Level 2: 5%-20% growth control rate) | 3 (Level 3: above 20% growth control rate) |
| CCn1nc(C2CC2)c(C(=O)c2ccc(C(F)(F)F)c(N3CCCC3=O)c2Cl)c1O [Compound 104] | 10 | 7 (Level 7: above 80% growth control rate) | 9 (Level 9: above 95% growth control rate) | 10 | 10 | 10 | 10 | 4 (Level 4: above 50% growth control rate) | 5 (Level 5: above 60% growth control rate) |
| CCn1nc(C2CC2)c(C(=O)c2ccc(C(F)(F)F)c(N3CCCC3=O)c2Cl)c1OC(=O)c1cn(C)nc1C [Compound 105] | 10 | 10 | 10 | 10 | 9 (Level 9: above 95% growth control rate) | 10 | 10 | 5 (Level 5: above 60% growth control rate) | 5 (Level 5: above 60% growth control rate) |
| CCn1ncc(C(=O)c2ccc(C(F)(F)F)c(N3CCCCC3=O)c2Cl)c1O [Compound 106] | 9 (Level 9: above 95% growth control rate) | 6 (Level 6: above 70% growth control rate) | 6 (Level 6: above 70% growth control rate) | 3 (Level 3: above 20% growth control rate) | 7 (Level 7: above 80% growth control rate) | 10 | 5 (Level 5: above 60% growth control rate) | 3 (Level 3: above 20% growth control rate) | 3 (Level 3: above 20% growth control rate) |
| CCn1ncc(C(=O)c2ccc(C(F)(F)F)c(N3CCCCC3=O)c2Cl)c1OC(=O)c1cn(C)nc1C [Compound 107] | 8 (Level 8: above 90% growth control rate) | 9 (Level 9: above 95% growth control rate) | 8 (Level 8: above 90% growth control rate) | 10 | 10 | 10 | 6 (Level 6: above 70% growth control rate) | 5 (Level 5: above 60% growth control rate) | 5 (Level 5: above 60% growth control rate) |
| CCc1nn(C)c(O)c1C(=O)c1ccc(C(F)(F)F)c(N2CCCCC2=O)c1Cl [Compound 110] | 10 | 5 (Level 5: above 60% growth control rate) | 2 (Level 2: 5%-20% growth control rate) | 10 | 9 (Level 9: above 95% growth control rate) | 9 (Level 9: above 95% growth control rate) | 10 | 0 | 2 (Level 2: 5%-20% growth control rate) |
| CCc1nn(CC)c(O)c1C(=O)c1ccc(C(F)(F)F)c(N2CCCCC2=O)c1Cl [Compound 112] | 7 (Level 7: above 80% growth control rate) | 1 (Level 1: below 5% growth control rate) | 6 (Level 6: above 70% growth control rate) | 5 (Level 5: above 60% growth control rate) | 5 (Level 5: above 60% growth control rate) | 10 | 2 (Level 2: 5%-20% growth control rate) | 3 (Level 3: above 20% growth control rate) | 3 (Level 3: above 20% growth control rate) |
| CCn1ncc(C(=O)c2ccc(C(F)(F)F)c(N3CCCCCC3=O)c2Cl)c1OC(=O)c1cn(C)nc1C [Compound 117] | 9 (Level 9: above 95% growth control rate) | 10 | 3 (Level 3: above 20% growth control rate) | 10 | 9 (Level 9: above 95% growth control rate) | 10 | 5 (Level 5: above 60% growth control rate) | 0 | 0 |
| CCn1nc(C)c(C(=O)c2ccc(C(F)(F)F)c(N3CCCCCC3=O)c2Cl)c1O [Compound 118] | 1 (Level 1: below 5% growth control rate) | 1 (Level 1: below 5% growth control rate) | 1 (Level 1: below 5% growth control rate) | 10 | 0 | 9 (Level 9: above 95% growth control rate) | 5 (Level 5: above 60% growth control rate) | 2 (Level 2: 5%-20% growth control rate) | 1 (Level 1: below 5% growth control rate) |
